Structures can show the parent of a compound that is named as a salt.
Key:
Type in all cases: biochemical
[1] = biological target: T1, recombinant human MAO-A (monoamine oxidase-A) (Homo sapiens, UniProt P21397); test: Activity evaluation on recombinant human MAO-A (Amplex Red/HRP-coupled assay, 0.5 mM tyramine substrate); details: 0.5 mM tyramine, read-out: Inhibitory Activity (IC50, nM) MAO-A
T1 construct: purchased Sigma-Aldrich
T1 sequence (P21397 1-527): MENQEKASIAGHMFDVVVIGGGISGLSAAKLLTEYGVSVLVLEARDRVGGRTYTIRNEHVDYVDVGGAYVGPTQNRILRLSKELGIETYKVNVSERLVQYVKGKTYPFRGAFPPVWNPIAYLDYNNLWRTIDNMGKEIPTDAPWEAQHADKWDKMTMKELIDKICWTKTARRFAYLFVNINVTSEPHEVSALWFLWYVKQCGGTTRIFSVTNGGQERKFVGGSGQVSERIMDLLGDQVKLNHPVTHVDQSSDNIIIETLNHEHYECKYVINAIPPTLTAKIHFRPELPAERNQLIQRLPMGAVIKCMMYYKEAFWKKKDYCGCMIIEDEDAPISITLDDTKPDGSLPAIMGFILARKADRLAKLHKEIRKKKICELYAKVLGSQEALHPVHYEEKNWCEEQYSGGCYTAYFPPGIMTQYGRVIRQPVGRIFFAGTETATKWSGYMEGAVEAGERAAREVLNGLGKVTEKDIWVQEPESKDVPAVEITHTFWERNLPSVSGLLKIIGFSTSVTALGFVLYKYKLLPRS
Summary of the method: (§1)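 Enzyme activity was measured as fluorescence rate (ex 544, em 590 nm) from resorufin formed by HRP-coupled H2O2 oxidation of 200 uM Amplex Red. Compounds were first incubated 30 min at 37 °C with enzyme at pH 7.4; substrates were 0.5 mM tyramine (MAO-A), 1 mM benzylamine (MAO-B) and 1 mM putrescine (DAO).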

[2] = biological target: T2, recombinant human DAO (diamine oxidase) (Homo sapiens, UniProt P19801); test: Activity evaluation on recombinant human DAO (Amplex Red/HRP-coupled assay, 1 mM putrescine substrate); details: 1 mM putrescine, read-out: Inhibitory Activity (IC50, nM) DAO
T2 construct: purchased R&D systems
T2 sequence (P19801 20-751): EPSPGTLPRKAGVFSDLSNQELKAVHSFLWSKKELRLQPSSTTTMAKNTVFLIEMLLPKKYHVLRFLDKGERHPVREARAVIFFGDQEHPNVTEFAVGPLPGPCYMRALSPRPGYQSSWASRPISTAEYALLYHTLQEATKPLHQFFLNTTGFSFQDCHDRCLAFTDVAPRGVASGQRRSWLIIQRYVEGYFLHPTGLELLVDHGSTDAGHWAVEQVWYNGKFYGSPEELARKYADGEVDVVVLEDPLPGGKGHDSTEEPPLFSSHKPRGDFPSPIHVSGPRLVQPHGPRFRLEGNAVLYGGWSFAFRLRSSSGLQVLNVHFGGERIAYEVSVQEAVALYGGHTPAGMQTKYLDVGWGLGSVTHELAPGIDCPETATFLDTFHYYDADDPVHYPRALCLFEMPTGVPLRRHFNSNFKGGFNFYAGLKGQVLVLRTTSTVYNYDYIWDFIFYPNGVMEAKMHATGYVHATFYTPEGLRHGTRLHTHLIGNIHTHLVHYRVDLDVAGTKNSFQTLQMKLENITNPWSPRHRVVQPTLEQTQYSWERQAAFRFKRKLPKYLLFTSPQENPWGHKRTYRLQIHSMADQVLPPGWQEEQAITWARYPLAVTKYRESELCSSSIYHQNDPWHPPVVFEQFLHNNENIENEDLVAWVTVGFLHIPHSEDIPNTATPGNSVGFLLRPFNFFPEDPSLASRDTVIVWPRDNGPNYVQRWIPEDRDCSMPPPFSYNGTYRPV
Summary of the method: as §1

recombinant human VAP-1 = biological target: T3, recombinant human VAP-1 (Homo sapiens, UniProt Q16853); test: Activity evaluation on recombinant human VAP-1 (Amplex Red/HRP-coupled hydrogen peroxide assay, benzylamine substrate); details: recombinant human VAP-1; 30 min preincubation at 37° C.; 1 mM benzylamine; read-out: Inhibitory Activity (IC50, nM) human VAP-1
T3 construct: purchased R&D systems
T3 sequence (Q16853 1-763): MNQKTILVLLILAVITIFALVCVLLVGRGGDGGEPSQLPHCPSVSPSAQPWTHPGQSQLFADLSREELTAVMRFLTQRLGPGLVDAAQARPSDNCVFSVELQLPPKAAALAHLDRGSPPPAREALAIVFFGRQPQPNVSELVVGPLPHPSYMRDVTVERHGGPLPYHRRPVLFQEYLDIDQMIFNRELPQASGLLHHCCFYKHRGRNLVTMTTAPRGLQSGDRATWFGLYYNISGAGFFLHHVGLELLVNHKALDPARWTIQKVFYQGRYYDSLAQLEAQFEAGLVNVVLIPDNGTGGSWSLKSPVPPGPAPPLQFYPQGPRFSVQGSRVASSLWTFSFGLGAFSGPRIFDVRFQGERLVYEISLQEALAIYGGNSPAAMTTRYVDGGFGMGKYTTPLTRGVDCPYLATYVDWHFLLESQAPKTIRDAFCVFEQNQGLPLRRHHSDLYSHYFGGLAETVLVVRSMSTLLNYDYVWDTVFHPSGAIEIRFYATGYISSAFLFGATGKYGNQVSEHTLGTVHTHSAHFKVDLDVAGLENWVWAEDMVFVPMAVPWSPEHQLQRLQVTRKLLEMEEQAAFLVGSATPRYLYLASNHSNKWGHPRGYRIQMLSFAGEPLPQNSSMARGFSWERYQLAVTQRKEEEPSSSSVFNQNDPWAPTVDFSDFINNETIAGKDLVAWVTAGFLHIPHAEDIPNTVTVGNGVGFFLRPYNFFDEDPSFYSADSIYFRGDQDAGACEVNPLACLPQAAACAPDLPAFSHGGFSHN
Summary of the method: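 Recombinant human VAP-1 in 50 mM sodium phosphate pH 7.4 preincubated 30 min at 37 °C with compound (8-point 1:3 series, <1% DMSO), then 1 mM benzylamine, 200 uM Amplex Red, 1 U/mL HRP added. H2O2-derived resorufin fluorescence (ex 544/em 590) followed 1–2 h; IC50 from four-parameter fit of rate inhibition.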

[3] = biological target: T4, recombinant human MAO-B (monoamine oxidase-B) (Homo sapiens, UniProt P27338); test: Activity evaluation on recombinant human MAO-B (Amplex Red/HRP-coupled assay, 1 mM benzylamine substrate); details: 1 mM benzylamine, read-out: Inhibitory Activity (IC50, nM) MAO-B
T4 construct: purchased Sigma-Aldrich
T4 sequence (P27338 1-520): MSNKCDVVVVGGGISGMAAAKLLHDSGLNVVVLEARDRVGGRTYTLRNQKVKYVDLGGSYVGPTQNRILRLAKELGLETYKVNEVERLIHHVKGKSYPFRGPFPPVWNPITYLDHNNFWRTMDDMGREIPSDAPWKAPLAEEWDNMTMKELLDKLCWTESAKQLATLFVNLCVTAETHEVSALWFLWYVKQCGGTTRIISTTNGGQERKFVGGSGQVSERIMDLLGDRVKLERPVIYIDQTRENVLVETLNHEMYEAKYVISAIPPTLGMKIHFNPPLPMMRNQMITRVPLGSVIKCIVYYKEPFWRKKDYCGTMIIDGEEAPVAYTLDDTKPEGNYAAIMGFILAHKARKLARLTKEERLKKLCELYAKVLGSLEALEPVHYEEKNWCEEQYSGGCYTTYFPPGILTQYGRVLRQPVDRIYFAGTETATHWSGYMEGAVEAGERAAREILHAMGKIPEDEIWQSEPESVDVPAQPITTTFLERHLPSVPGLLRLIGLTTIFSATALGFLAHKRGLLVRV
Summary of the method: as §1

Row | IC50 [1] | IC50 [2] | IC50 (recombinant human VAP-1) | IC50 [3] | Compound
1 | > 100000 nM | 8400 nM | 0.4 nM | 31000 nM | NCC(Cn1ncn(Cc2ccc(C#Cc3ccc(N4CCOCC4)nc3)s2)c1=O)=C(F)F [Example 163, 2-[2-(aminomethyl)-3,3-difluoro-allyl]-4-[[5-[2-(6-morpholino-3-pyridyl)ethynyl]-2-thienyl]methyl]-1,2,4-triazol-3-one Trifluoroacetate]
2 | 4000 nM | > 10000 nM | 2.5 nM | 34000 nM | NCC(Cn1ncn(Cc2ccc(C#Cc3ccc4c(c3)NCCO4)s2)c1=O)=C(F)F [Example 164, 2-[2-(aminomethyl)-3,3-difluoro-allyl]-4-[[5-[2-(3,4-dihydro-2H-1,4-benzoxazin-6-yl)ethynyl]-2-thienyl]methyl]-1,2,4-triazol-3-one Ditrifluoroacetate]
3 | > 100000 nM | > 10000 nM | 0.5 nM | 5900 nM | NCC(Cn1ncn(Cc2ccc(C#Cc3ccc4c(c3)CCC(=O)N4)s2)c1=O)=C(F)F [Example 165, 6-[2-[5-[[1-[2-(aminomethyl)-3,3-difluoro-allyl]-5-oxo-1,2,4-triazol-4-yl]methyl]-2-thienyl]ethynyl]-3,4-dihydro-1H-quinolin-2-one Trifluoroacetate]
4 | > 10000 nM | > 10000 nM | 0.9 nM | > 10000 nM | NCC(Cn1ncn(Cc2ccc(C#Cc3cnc4c(c3)NCCO4)s2)c1=O)=C(F)F [Example 166, 2-[2-(aminomethyl)-3,3-difluoro-allyl]-4-[[5-[2-(2,3-dihydro-1H-pyrido[2,3-b][1,4]oxazin-7-yl)ethynyl]-2-thienyl]methyl]-1,2,4-triazol-3-one Ditrifluoroacetate]
5 | > 100000 nM | > 10000 nM | 2.1 nM | 41000 nM | NCC(Cn1ncn(Cc2ccc(C#Cc3cnc4c(c3)OCCN4)s2)c1=O)=C(F)F [Example 167, 2-[2-(aminomethyl)-3,3-difluoro-allyl]-4-[[5-[2-(3,4-dihydro-2H-pyrido[3,2-b][1,4]oxazin-7-yl)ethynyl]-2-thienyl]methyl]-1,2,4-triazol-3-one Ditrifluoroacetate]
6 | > 10000 nM | > 100000 nM | 1 nM | 45000 nM | NCC(Cn1ncn(Cc2ccc(C#Cc3ccc4c(n3)OCCN4)s2)c1=O)=C(F)F [Example 168, 2-[2-(aminomethyl)-3,3-difluoro-allyl]-4-[[5-[2-(2,3-dihydro-1H-pyrido[2,3-b][1,4]oxazin-6-yl)ethynyl]-2-thienyl]methyl]-1,2,4-triazol-3-one Ditrifluoroacetate]
7 | > 100000 nM | > 100000 nM | 0.2 nM | > 100000 nM | NCC(Cn1ncn(Cc2ccc(C#Cc3cnc4c(c3)NC(=O)CO4)s2)c1=O)=C(F)F [Example 169, 7-[2-[5-[[1-[2-(aminomethyl)-3,3-difluoro-allyl]-5-oxo-1,2,4-triazol-4-yl]methyl]-2-thienyl]ethynyl]-1H-pyrido[2,3-b][1,4]oxazin-2-one Trifluoroacetate]
8 | > 100000 nM | > 10000 nM | 0.8 nM | 14000 nM | NCC(Cn1ncn(Cc2ccc(C#Cc3cnc4c(c3)OCC(=O)N4)s2)c1=O)=C(F)F [Example 170, 7-[2-[5-[[1-[2-(aminomethyl)-3,3-difluoro-allyl]-5-oxo-1,2,4-triazol-4-yl]methyl]-2-thienyl]ethynyl]-4H-pyrido[3,2-b][1,4]oxazin-3-one Trifluoroacetate]
9 | > 100000 nM | > 100000 nM | 1.8 nM | 50000 nM | Cn1cc(C#Cc2ccc(Cn3cnn(CC(CN)=C(F)F)c3=O)s2)cn1 [Example 171, 2-[2-(aminomethyl)-3,3-difluoro-allyl]-4-[[5-[2-(1-methylpyrazol-4-yl)ethynyl]-2-thienyl]methyl]-1,2,4-triazol-3-one Trifluoroacetate]

Source: patent US11168073B2, “3,3-difluoroallylamines or salts thereof and pharmaceutical compositions comprising the same” (YUHAN CORPORATION, priority 2018, dated 2021)
